Experimental data reported in patent publication US9180183B2, “Phospholipid drug analogs” (Telormedix SA, priority 2010, dated 2015).
Entries after “also recorded” stand apart in the source; their conditions may differ.

How the values were obtained:
[1] = Intravenous pharmacokinetics in the mouse; conditions: IV bolus 1 mg/kg; for Plasma concentration Mean ± S.D.: LLOQ: 5 ng/ml
Protocol: An IV bolus was administered into the caudal vein at a dose of 1 mg/kg in 5 ml. The compound weight was 2.08/10.04 ml. 24 mice were studied. Sampling was obtained by exsanguination under anesthesia, at 5, 15, 30, 60, 240, and 480 minutes, and at 24 hours. […] Animals were sacrificed using ethyl ether at the conclusion of the experiment.
Sample preparation: In a Sirocco filter plate, 100 microliters of plasma were added to 300 microliters of ACN/MeOH spiked with 5 microliters of IS (IV298 10 micrograms per ml) plus 10 microliters of 5% H3PO4. The plate was shaken for 10 minutes at 80 rpm and then filtered under vacuum for 5 minutes.
Analytical method: LC/MS/MS: Premiere XE, Eluent: water (A) MeOH (B) plus 0.1% HCOOH gradient. 15% B to 100% B from 0.1 to 0.5, then isocratic 100% B up to 1.5 minutes, flow 0.8 ml/min; Column Acquity UPLC BEH C18 1.7 microm 2.1×50 mm, injection volume of 5 microliters in a T column at 50° C. ESI positive, MRM, Extractor 5V; Capillary 3.5 kV; T source 115° C.; T desolv. 450° C.
Data analysis: Non-compartmental analysis WinNonlin 5.1; linear trapezoidal, uniform weight.

CYP3A4 = CYP3A4 (Homo sapiens (Human), UniProt P08684); experiment: Fluorescent High Throughput P450 assay CYP3A4; format: in vitro ADME
Protocol: Inhibition of the P450 isoforms was measured in specific assays using specific substrates that become fluorescent upon CYP metabolism. Compounds, dissolved in ACN (acetonitrile) (CYP2E1, CYP2C8, CYP2B6, CYP3A5) or DMSO (all remaining isoforms), were tested in duplicate (n=2) in concentration-response curves (eight concentrations) in a 96-well plate containing incubation/NADPH regenerating buffer. Specific isoenzymes and substrates were added and incubated at 37° C. Reactions were terminated at different times, depending on the assays, and plates read on a Fluoroskan Ascent at the appropriate emission/excitation wavelengths. Concentration-response curves performed in duplicate for known inhibitors for each isoenzyme were tested in every assay as positive control.

HLA-DR+/CD20+ B cells = experiment: FACS analysis of B cell activation in whole blood; format: cell-based, human; conditions: 24 hours; 2 and 10 uM; three donors
Protocol: The FACS staining was performed according to the manufacturer's instructions. Lysis of red blood cells was performed before FACS staining in order to minimize auto-florescence. To include as many B cells and DCs in the study as possible the FACS analyses were performed on 500,000 cells in total for each staining. […] The results of the individual analysis were present as Mean Fluorescence Intensity
The analysis of expression of the activation marker CD40 on B cells was made on double positive HLA-DR (MHC class II) (P4 gate) and CD20 cells (B cell marker) (P8 gate).

PBMCs = experiment: IL-6 and TNF-alpha secretion in PBMCs (ELISA), Model 2; format: cell-based, human; conditions: three donors
[2] = tested on: Cutaneous Squamous Cell Carcinoma (SCC) cell lines SCL-I, SCL-II, SCC-12, SCC-13; experiment: Proapoptotic and cytotoxic effects on cutaneous SCC cell lines (real-time cell analysis, microscopy); format: cell-based, human
Protocol: SCC cells are grown under standard conditions (10% FBS).
Time and dose dependency of effects on total cell numbers have been investigated by real-time cell analysis, which is based on continuous monitoring of electric conductance in microtiter wells (E-plates, Roche), which corresponds to the cell numbers. […] For these assays 4 cell lines should be used to obtain a representative overview on the effects on SCC cells.

[3] = tested on: AY-27 rat bladder cancer cell-line; conditions: in vivo
[4] = Heat stability of solid samples at 80° C. (HPLC); format: physicochemical; conditions: solid sample
Protocol: Solid samples of each compound were maintained at 80° C. and analyzed by HPLC.

[5] = tested on: HLA-DR+/CD11c-/CD123+ pDCs; experiment: FACS analysis of plasmacytoid DC activation in whole blood; format: cell-based, human; conditions: 24 hours; 0.1 and 0.5 uM; three donors
Protocol: A flow cytometric analysis was performed on whole blood from three donors after treatment with two compound concentrations for 24 h. The FACS analysis for donor 1 and donor 2 was made on another day than donor 3. The compound concentrations were as follows:
The FACS analysis was used to identify whether the test compounds could induce activation of B cells, and two different subsets of dendritic cells, namely the myeloid CD11c+/CD123− DCs and the plasmacytoid CD11c−/CD123+ DCs. The following markers were studied to identify the activation status of the different subsets:
The FACS staining was performed according to the manufacturer's instructions. Lysis of red blood cells was performed before FACS staining in order to minimize auto-florescence. To include as many B cells and DCs in the study as possible the FACS analyses were performed on 500,000 cells in total for each staining. A P1 gate was set only to include relevant cells on FSC vs. SSC (see FIGS. 12-15). The results of the individual analysis were present as Mean Fluorescence Intensity
The analysis of pDCs was based on HLA-DR+/CD11c−/CD123+ cells, thus all analyzed cells were included in the HLA-DR+ (P3) gate and CD11c−/CD123+ (Q1) gate. (FIGS. 13-15).

[6] = tested on: Salmonella typhimurium TA1535, TA1537, TA98, TA100; experiment: Bacterial mutation assay, Salmonella typhimurium; format: cell-based; conditions: absence or presence of S9 metabolism
Protocol: The five tester strains TA1535, TA1537, TA98, TA100 and WP2 uvrA were used. Experiments were performed both in the absence and presence of metabolic activation, using liver S9 fraction from rats pre-treated with phenobarbitone and betanaphthoflavone. SC12 was used as a solution in dimethylsulfoxide (DMSO).

[7] = Stability study of SC12 under storage conditions (HPLC); format: physicochemical
human whole blood = experiment: Cytokine secretion in human whole blood assay (ELISA); format: cell-based; conditions: for IL-12p40 levels: all donors
Protocol: Before drawing the blood, the compounds were added to 96 well round bottom plates in a 10× diluted sample at 20 ul. The compounds were diluted in RPMI media without serum but with antibiotics. Antibiotics were added at a 10× concentration. After drawing the blood, the whole blood sample was gently mixed to obtain a homogeneous sample, and 180 ul was added to each well.
All compounds were setup in concentrations at 0-0.01-0.03-0.1-0.5-2.0-10.0 micromolar as the final concentration. Vehicle control was DMSO control, where we used the highest concentration used for the compounds. After addition of blood, all plates were gently agitated at 37° C. and 5% CO2 until harvest.
Concentrations of cytokines were determined by ELISA from R&D Systems. The results were analyzed in Graph Pad Prism in order to prepare dose-response curves, and for determination of EC50 values. FACS analysis was made by using Becton-Dickinson FACSDiva software and subsequently illustrated in Graph Pad Prism.

[8] = solid, RT and light, t = 20 days
[9] = solid, external T and light, t = 20 days
[10] = solution in CHCl3, RT and light, t = 0
[11] = solution in CHCl3, RT and light, t = 20 days
[12] = whole blood, 6 hours incubation

Sequence of CYP3A4 (P08684 whole entry, looked up): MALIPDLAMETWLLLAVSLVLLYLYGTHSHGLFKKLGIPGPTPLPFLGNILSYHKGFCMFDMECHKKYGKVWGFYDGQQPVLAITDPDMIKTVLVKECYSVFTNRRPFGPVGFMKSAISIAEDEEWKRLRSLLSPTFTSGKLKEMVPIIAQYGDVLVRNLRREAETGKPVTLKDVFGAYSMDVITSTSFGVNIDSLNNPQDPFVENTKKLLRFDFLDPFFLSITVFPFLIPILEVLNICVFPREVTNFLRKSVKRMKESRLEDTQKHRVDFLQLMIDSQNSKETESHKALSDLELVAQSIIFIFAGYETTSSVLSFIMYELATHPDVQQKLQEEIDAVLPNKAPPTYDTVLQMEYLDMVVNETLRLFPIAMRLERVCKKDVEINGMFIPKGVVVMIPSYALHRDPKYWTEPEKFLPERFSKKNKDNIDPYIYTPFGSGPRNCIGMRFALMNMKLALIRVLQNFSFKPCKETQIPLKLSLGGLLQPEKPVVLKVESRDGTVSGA

For `CCCCCCCCCCCC(=O)OCC(COP(=O)(O)OCCNC(=O)c1ccc(Cn2c(=O)[nH]c3c(N)nc(OCCOC)nc32)cc1)OC(=O)CCCCCCCCCCC` (stereo not drawn) [SC12], the adverse behavioral effects [1] was “No adverse behavioral effects”, the Cl ([1]; plasma) was 4.66 L/h/kg and the Clast ([1]; plasma) was 6 ng/mL. For the same compound, the MRT ([1]; plasma) was 32 min, the “T ½” value ([1]; plasma) was 130 min and the Tlast ([1]; plasma) was 120 min. The Tmax ([1]; plasma) was 5 min, the Vss ([1]; plasma) was 2.5 L/kg and the “Plasma concentration Mean ± S.D.” value ([1]; 240 min) was “<LLOQ”. The “Plasma concentration Mean ± S.D.” value ([1]; 480 min) was “<LLOQ”, the “Plasma concentration Mean ± S.D.” value ([1]; 1440 min) was “<LLOQ” and the “inhibition of CYP3A4 (in words)” value (CYP3A4) was “moderate inhibition”. The “CD40 expression (MFI, in words)” value (HLA-DR+/CD20+ B cells) was “induced CD40 expression in donor 1 and donor 2 in all tested concentrations”, the “induction of IL-6 and TNF-alpha secretion (in words)” value (PBMCs) was “most potent TLR7 agonists” and the “morphological changes (microscopy)” value ([2]; SCC cells, time of treatment 3d, 120 microM) was “cell detachment, morphological changes and inhibition of proliferation”. For the same compound, the “cell numbers (real-time cell analysis, electric conductance)” value ([2]; cutaneous SCC cell lines) was “reduced cell numbers”, the “signs of toxicity (in words)” value [3] was “No signs of toxicity” and the HPLC purity ([4]; After 2 hrs at 80° C.) was 90% HPLC. For the same compound, the HPLC purity ([4]; After 22 hrs at 80° C.) was 88% HPLC, the HPLC purity ([4]; t = 0) was 90% HPLC and the “CD80 expression in pDCs (MFI, in words)” value [5] was “induces a slightly higher CD80 expression than compound A”. The “CD86 expression in pDCs (MFI, in words)” value [5] was “tendency to induce higher CD86 expression than compound A”, the “toxicity to tester strains” value ([6]; toxicity test, 50.0-5000 micrograms/plate) was “No toxicity was observed” and the “reverse mutation / revertant colonies” value ([6]; up to 5000 micrograms/plate) was “did not induce two-fold increases in the number of revertant colonies; also recorded: does not induce reverse mutation”. For the same compound, the “HPLC % at RRT = 1 (main peak)” value [7, 8] was “RRT = 1: 87.8%”, the “HPLC % of impurity at RRT = 0.88” value [7, 8] was “RRT = 0.88: 6.2%” and the “HPLC % of impurity at RRT = 1.21” value [7, 8] was “RRT = 1.21: 4.8%”. For the same compound, the “HPLC % at RRT = 1 (main peak)” value [7, 9] was “RRT = 1: 84.0%”, the “HPLC % of impurity at RRT = 0.88” value [7, 9] was “RRT = 0.88: 6.6%” and the “HPLC % of impurity at RRT = 1.21” value [7, 9] was “RRT = 1.21: 7.1%”. The “HPLC % at RRT = 1 (main peak)” value [7, 10] was “RRT = 1: 90.3%”, the “HPLC % of impurity at RRT = 0.46” value [7, 10] was “RRT = 0.46: 5.7%” and the “HPLC % of impurity at RRT = 1.21” value [7, 10] was “RRT = 1.21: 0.9%”. For the same compound, the “HPLC % at RRT = 1 (main peak)” value [7, 11] was “RRT = 1: 88.0%”, the “HPLC % of impurity at RRT = 0.88” value [7, 11] was “RRT = 0.88: 6.2%” and the “HPLC % of impurity at RRT = 1.21” value [7, 11] was “RRT = 1.21: 5.0%”. For the same compound, the “induction of DC secreted cytokines (in words)” value (human whole blood; supernatant from whole blood cell assays) was “potent inducers”, the “range of IL-6 secretion” value (human whole blood; whole blood, three donors) was 4000 to 8000 pg/mL and the “ranges of IFN-alpha secreted” value (human whole blood; whole blood, three donors) was 1000 to 2000 pg/mL. The “IL-10 production (in words)” value (human whole blood; [12]) was “no IL-10 production was seen”, the IL-12p40 levels (human whole blood; [12]) was 8.000 to 12.000 pg/mL and the IL-12p40 levels (human whole blood; whole blood, 24 hours incubation) was 20.000 to 25.000 pg/mL.
